These results are taken from patent US20260327242A1, “Platform and Scaffold for FAP Targeting Agents” (Erasmus University Medical Center Rotterdam, priority 2022, published 2026).

The subject of one data set is U-87 cells. Description: Cytotoxicity assay in FAP+ U-87 cells (resazurin). It counts as cell-based. Here is the method:
In 96-well plates, U-87 cells (3×10^3) were seeded in each well and incubated at 37° C. and 5% CO2 for 24 h. The medium was removed and the wells were washed once with PBS. The cytotoxic drug (positive control) or the eFAP conjugate containing the drug were prepared at various concentrations (i.e., 1, 10, 100, 1000 nM) in DMEM culture medium, supplemented with 2 mM L-glutamine, 10% FBS, 50 units/mL penicillin, and 50 μg/mL streptomycin. Medium was used as a negative control. Cells were incubated with 100 μL of the tested compounds for 1, 24, 48, and 72 h. After incubation, medium was removed and each well was washed once with PBS. Next, 100 μL of 10% resazurin solution in culture medium was added to each well and incubated for 2.5 h. Fluorescence measurements were carried out using a microplate reader at 544 nm excitation and 590 nm emission.

The target in another data set is T1, mouse FAP (mFAP) (Mus musculus, UniProt P97321).
T1 sequence (P97321 26-761 limits assumed): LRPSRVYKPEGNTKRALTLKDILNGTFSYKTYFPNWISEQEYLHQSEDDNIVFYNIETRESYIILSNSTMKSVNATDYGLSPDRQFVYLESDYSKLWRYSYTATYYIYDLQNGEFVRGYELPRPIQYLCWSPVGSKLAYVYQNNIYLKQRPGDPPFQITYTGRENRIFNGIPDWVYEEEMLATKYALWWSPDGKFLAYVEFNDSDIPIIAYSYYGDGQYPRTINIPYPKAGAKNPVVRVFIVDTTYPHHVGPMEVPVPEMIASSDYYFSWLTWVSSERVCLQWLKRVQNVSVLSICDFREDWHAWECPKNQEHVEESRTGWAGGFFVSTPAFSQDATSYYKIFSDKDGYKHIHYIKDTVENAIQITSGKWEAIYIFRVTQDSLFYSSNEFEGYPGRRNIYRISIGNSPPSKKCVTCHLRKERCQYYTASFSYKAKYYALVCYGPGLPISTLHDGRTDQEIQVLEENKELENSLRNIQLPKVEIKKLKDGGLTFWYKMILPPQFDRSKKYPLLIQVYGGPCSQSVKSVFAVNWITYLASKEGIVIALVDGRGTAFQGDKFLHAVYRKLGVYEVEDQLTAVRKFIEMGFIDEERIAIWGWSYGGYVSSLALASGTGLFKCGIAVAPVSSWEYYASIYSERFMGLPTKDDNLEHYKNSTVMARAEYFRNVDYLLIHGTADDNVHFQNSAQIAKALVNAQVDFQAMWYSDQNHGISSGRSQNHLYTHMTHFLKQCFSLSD
Description: In vitro inhibition assay on mouse FAP (Z-GP-AMC substrate). It is filed as biochemical. The note with it: 20 μM Z-GP-AMC, 20 nM FAP, pH 7.4, room temperature. As for the experimental part: (§1) Enzymatic activity of human FAP (hFAP) and mouse FAP (mFAP) on the Z-GP-AMC substrate was measured at room temperature on a Hidex microplate reader by monitoring the fluorescence at an excitation wavelength of 360 nm and an emission wavelength of 465 nm. The reaction mixture contained 20 μM substrate, 20 nM FAP, assay buffer (50 mM Tris, 100 mM NaCl, 1 mM EDTA, pH 7.4) and tested compound (serial dilution from 10-6 to 10^−12) in a total volume of 50 μL.
Results with FAPI-46 obtained in the same assay is included for comparison.

For a further data set, the system named is U-87 tumor. Description: Near-infrared fluorescence imaging of U-87 tumor bearing mice. It is filed as in vivo, mouse. The note with it: 2 nmol i.v., imaging 1 h, excised tumors 2.5 h. The text has this: Six-week-old male Balb/c nu/nu-specific and opportunistic pathogen-tree (SOPF) mice were housed in individually ventilated cages, with 4 mice per cage. Upon arrival, mice were acclimated for 1 week, with access to food and water ad libitum. Mice were subcutaneously inoculated on the right shoulder with U-87 or HT-1080.hFAP cells (1×10^6 cells). Xenografts were allowed to grow until they reached an appropriate size at the start of the studies. All animal experiments were approved by the Animal Welfare Committee of the Erasmus MC and were conducted in agreement with institutional guidelines (license number: AVD101002017867).
Evaluation of targeting performance of eFAP-17 in near-infrared fluorescence imaging of U-87 tumor bearing mice after intravenous injection of 2 nmol of the probe are given in FIG. 9 showing A) NIRF imaging of U-87 tumor bearing mice at 1 h after intravenous injection of 2 nmol of CW800 (left, negative control) or eFAP-17 (right) and B) image of excised tumors 2.5 h post administration of CW800 (left) or eFAP-17 (right).

A further data set has as its target T2, human FAP (hFAP) (Homo sapiens, UniProt Q12884).
T2 sequence (Q12884 26-760 limits assumed): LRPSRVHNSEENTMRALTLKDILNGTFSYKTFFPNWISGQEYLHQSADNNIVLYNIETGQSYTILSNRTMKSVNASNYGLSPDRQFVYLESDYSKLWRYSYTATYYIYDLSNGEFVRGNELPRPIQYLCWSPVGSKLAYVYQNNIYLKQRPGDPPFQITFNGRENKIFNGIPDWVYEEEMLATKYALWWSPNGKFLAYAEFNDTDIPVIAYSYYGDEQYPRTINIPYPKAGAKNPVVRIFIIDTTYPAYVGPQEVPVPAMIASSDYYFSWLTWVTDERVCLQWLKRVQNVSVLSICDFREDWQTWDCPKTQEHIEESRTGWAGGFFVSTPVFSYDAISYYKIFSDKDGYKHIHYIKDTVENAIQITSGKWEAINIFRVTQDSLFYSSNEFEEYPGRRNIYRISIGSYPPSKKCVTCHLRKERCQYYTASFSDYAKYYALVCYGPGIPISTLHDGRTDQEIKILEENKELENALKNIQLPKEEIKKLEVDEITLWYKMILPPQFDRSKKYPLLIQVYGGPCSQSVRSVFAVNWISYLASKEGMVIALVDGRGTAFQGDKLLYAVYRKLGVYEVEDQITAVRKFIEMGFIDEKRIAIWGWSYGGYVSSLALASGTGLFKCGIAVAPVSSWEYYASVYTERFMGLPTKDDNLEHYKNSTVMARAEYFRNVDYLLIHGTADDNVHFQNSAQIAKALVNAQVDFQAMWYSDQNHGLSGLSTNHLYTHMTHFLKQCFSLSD
Nature of the data set: In vitro inhibition assay on human FAP (Z-GP-AMC substrate). It counts as biochemical. The note with it: 20 μM Z-GP-AMC, 20 nM FAP, pH 7.4, room temperature. As for the experimental part: as §1

SMILES strings stand for the structures.

As for `COc1cc2cc(c1Cl)N(C)C(=O)C[C@H](OC(=O)[C@H](C)N(C)C(=O)CCS)[C@]1(C)O[C@H]1[C@H](C)[C@@H]1C[C@@](O)(NC(=O)O1)[C@H](OC)/C=C/C=C(\C)C2` [DM1, Mertansine, reference compound], in the data set with U-87 cells (FAP+ U-87 cells, single dose of eFAP-18 (1 μM) compared with the parent drug DM1), the cell viability is listed as 40%.
Consider `CC1(C)C(/C=C/C2=C(Oc3ccc(S(=O)(=O)O)cc3)C(=C/C=C3/N(CCCCCC(=O)NCCCOc4cccc5c(C(=O)NCC(=O)N6CC(F)(F)C[C@H]6C#N)ccnc45)c4ccc(S(=O)(=O)O)cc4C3(C)C)/CCC2)=[N+](CCCCS(=O)(=O)[O-])c2ccc(S(=O)(=O)O)cc21` [eFAP-17, 4-(2-((E)-2-((E)-3-(2-((E)-1-(6-((3-((4-((2-((S)-2-Cyano-4,4-difluoropyrrolidin-1-yl)-2-oxoethyl)carbamoyl)quinolin-8-yl)oxy)propyl)amino)-6-oxohexyl)-3,3-dimethyl-5-sulfoindolin-2-ylidene)ethylidene)-2-(4-sulfophenoxy)cyclohex-1-en-1-yl)vinyl)-3,3-dimethyl-5-sulfo-3H-indol-1-ium-1-yl)butane-1-sulfonate], for which, on mouse FAP (mFAP), the IC50 came to 5 ± 0.2 nM. Moreover, in the data set with U-87 tumor, the “accumulation in healthy tissues, NIRF imaging (in words)” value was “low accumulation in healthy tissues” and the “tumor uptake, NIRF imaging (in words)” value is listed as “high uptake in the FAP overexpressing tumor”.
As for `COc1cc2cc(c1Cl)N(C)C(=O)CC(OC(=O)C(C)N(C)C(=O)CCSSCCC(=O)NCCCOc1cccc3c(C(=O)NCC(=O)N4CC(F)(F)CC4C#N)ccnc13)C1(C)OC1C(C)C1CC(O)(NC(=O)O1)C(OC)C=CC=C(C)C2` [eFAP-18, (1^4S,1^6S,3^2S,3^3S,2R,4S,10E,12E,14R)-8^6-chloro-1^4-hydroxy-8^5,14-dimethoxy-3^3,2,7,10-tetramethyl-1^2,6-dioxo-7-aza-1(6,4)-oxazinana-3(2,3)-oxirana-8(1,3)-benzenacyclotetradecaphane-10,12-dien-4-yl N-(3-((3-((3-((4-((2-((S)-2-cyano-4,4-difluoropyrrolidin-1-yl)-2-oxoethyl)carbamoyl)quinolin-8-yl)oxy)propyl)amino)-3-oxopropyl)disulfaneyl)propanoyl)-N-methyl-L-alaninate], the half-maximal inhibitory concentration (IC50) against human FAP (hFAP) is 2.6 ± 0.8 nM; against mouse FAP (mFAP), 2 ± 0.1 nM. For the same compound, the viability at 1 µM with U-87 cells (Homo sapiens, U-87 MG, read-out: cell viability) is ~25%.
For the compound `CC1(C)C(=CC=C2CCCC(C=CC3=[N+](CCCCS(=O)(=O)[O-])c4ccc(S(=O)(=O)O)cc4C3(C)C)=C2Oc2ccc(S(=O)(=O)O)cc2)N(CCCCCC(=O)NCC(O)CC(=O)NCC(O)CC(=O)NCCCOc2cccc3c(C(=O)NCC(=O)N4CC(F)(F)C[C@H]4C#N)ccnc23)c2ccc(S(=O)(=O)O)cc21` (stereo partly drawn) [eFAP-24, 2-((E)-2-((E)-3-(2-((E)-1-(6-((4-((4-((3-((4-((2-((S)-2-cyano-4,4-difluoropyrrolidin-1-yl)-2-oxoethyl)carbamoyl)quinolin-8-yl)oxy)propyl)amino)-2-hydroxy-4-oxobutyl)amino)-2-hydroxy-4-oxobutyl)amino)-6-oxohexyl)-3,3-dimethyl-5-sulfonatoindolin-2-ylidene)ethylidene)-2-(4-sulfonatophenoxy)cyclohex-1-en-1-yl)vinyl)-3,3-dimethyl-1-(4-sulfonatobutyl)-3H-indol-1-ium-5-sulfonate], the values for the IC50 against human FAP (hFAP) and at mouse FAP (mFAP) were 3.04 ± 0.18 nM and 2.96 ± 0.15 nM, respectively.
Take `CC1(C)C(/C=C/C2=C(Oc3ccc(S(=O)(=O)O)cc3)C(=C/C=C3/N(CCCCCC(=O)NCC(O)CC(=O)NCCCOc4cccc5c(C(=O)NCC(=O)N6CC(F)(F)C[C@H]6C#N)ccnc45)c4ccc(S(=O)(=O)O)cc4C3(C)C)/CCC2)=[N+](CCCCS(=O)(=O)[O-])c2ccc(S(=O)(=O)O)cc21` (stereo partly drawn) [eFAP-27, 4-(2-((E)-2-((E)-3-(2-((E)-1-(6-((4-((3-((4-((2-((S)-2-cyano-4,4-difluoropyrrolidin-1-yl)-2-oxoethyl)carbamoyl)quinolin-8-yl)oxy)propyl)amino)-2-hydroxy-4-oxobutyl)amino)-6-oxohexyl)-3,3-dimethyl-5-sulfoindolin-2-ylidene)ethylidene)-2-(4-sulfophenoxy)cyclohex-1-en-1-yl)vinyl)-3,3-dimethyl-5-sulfo-3H-indol-1-ium-1-yl)butane-1-sulfonate]: the values for the IC50 at human FAP (hFAP) and on mouse FAP (mFAP) were 4.01 ± 0.28 nM and 3.72 ± 0.11 nM, respectively.
